US20030217372A1, “Methods of using alpha 1b-adrenergic receptors” (priority 2002, published 2003)

Columns and labels:
Type in all cases: in vivo
WT and α1bAR-KO mice [1] = experiment: Microdialysis: extracellular DA levels in the nucleus accumbens after systemic D-amphetamine
Protocol: Mice were anaesthetised with sodium pentobarbital (60 mg/kg; Sanofi Santé Animale, France) and placed in a stereotaxic frame (Kopf instruments). The head was positioned by means of a mouse nose clamp adaptator (Kopf model 922) supplemented by rat ear bars placed lightly in the external auditory meatus. A unilateral permanent cannula (CMA/7 guide cannula, Microdialysis AB, Sweden) was implanted into the nucleus accumbens and was secured on the skull with screw and dental cement. The coordinates for the guide cannula tip were antero-posterior (AP): +1.3 relative to bregma, medio-lateral (ML): +0.8, and dorso-ventral (DV): −2,4 mm from dura (Paxinos and Franklin, The mouse brain in stereotaxic coordinates, Academic Press 2001).
The day of the experiment, the microdialysis probe was inserted (CMA/7, Membrane length 2 mm and diameter 0.24 mm, cut-off: 6000 Da, Microdialysis AB, Sweden, for mice or CMA/11 with identical probe characteristics for rats). Artificial CSF (in mM: NaCl: 147; KCl: 3.5; CaCl2: 1; MgCl2: 1.2; NaH2PO4: 1; NaHCO3: 25, pH=7.6) was perfused with a CMA100 microinjection pump through the probe at a rate of 1 μl/min (2 μl/min for rats) via FEP catheter (internal diameter 0.12 mm for mice) or polyethylene catheter (internal diameter 0.3 mm for rats) connected to a fluid swivel. Adequate steady state of DA levels in perfusate samples was reached 2 hours and 20 minutes after probe insertion for mice and rats, and samples were collected in 300 μl vials placed into a refrigerated computer-controlled fraction collector (CMA/170). Samples (20 μl every 20-minutes for mice and 10 μl every 5 minutes for rats) were collected during 100 minutes and 30 minutes for mice and rats, respectively, to determine basal extracellular DA values.
Dialysate samples were completed to 30 μl with the mobile phase and placed into a refrigerated automatic injector (Triathlon, Spark Holland, Emmen, The Netherlands). Twenty five μl of the sample were injected every 15 minutes through a rheodyne valve in the mobile phase circuit. High-performance liquid chromatography was performed with a reverse-phase column (80×4.6 mm, […] particle size, HR-80, ESA INC., Chelmsford, Mass.). Mobile phase (NaH2PO4 75 mM, EDTA 20 μM, octane sulfonic acid 2.75 mM, triethylamine 0.7 mM, acetonitrile 6%, methanol 6%, and pH 5.2) was delivered at 0.7 ml/min by an ESA-580 pump. Electrochemical detection was performed with an ESA coulometric detector (Coulochem II 5100A, with a 5014B analytical cell; Eurosep, Cergy, France). […]
(§1) Results presented are means±S.E.M of data obtained with 5 to 9 animals. […] Data from microdialysis experiments were expressed as a percentage of the respective mean basal value to compensate for inter-subject differences. […]

WT and α1b-AR KO mice [2] = experiment: Locomotor activity in circular corridor after acute drug injection; settings: for locomotor activity: i.p., different doses
Protocol: FIG. 2 is a series of dose response graphs that depicts the results of locomotor response to novelty, saline, scopolamine and chloro-APB experiments in WT and α1b-AR KO mice. […] Animals were placed in the experimental apparatus for 90 minutes, received a saline injection and were replaced in the apparatus for 60 minutes. On the following day, animals were placed in the experimental apparatus for 90 minutes, they received an intraperitoneal injection of either saline or scopolamine (1 mg/kg) and their locomotor response was measured every 5 minutes for 60 minutes. FIG. 2D represents the results of locomotor response to chloro-APB; animals were placed in the experimental apparatus for 90 minutes, received a saline injection and were replaced in the apparatus for 60 minutes. On the following days, animals were placed in the experimental apparatus for 90 minutes, they received an intraperitoneal injection of chioro-APB and their locomotor response was measured every 5 minutes for 60 minutes. Several doses of chloro-APB were tested on consecutive days in a random order.
Independent groups of animals were used for each treatment to avoid eventual behavioral sensitization (N=6-16 per group).
(§2) Mice were introduced in a circular corridor (4.5 cm width, 17 cm external diameter) crossed by four infrared beams (1.5 cm above the base) placed at every 90° (Imetronic, Pessac, France). The locomotor activity was counted when animals interrupted two successive beams and, thus, had traveled ¼ of the circular corridor. In each session, the spontaneous activity was recorded for 90 minutes, before mice received either saline or drugs. Their activity was recorded for an additional 60 minutes or 120 minutes period. The first session was a session of habituation to the experimental procedure during which animals received saline (˜3 ml/kg, i.p.). The locomotor response to a drug administration was measured on the following day. Tests were performed between 12:00 and 6:00 p.m. in stable conditions of temperature and humidity.

WT and α1bAR-KO mice [3] = experiment: Locomotor activity after systemic D-amphetamine during microdialysis experiments; settings: 120 minutes after injection
Protocol: as §2
Results presented are means±S.E.M of data obtained with 5 to 9 animals. Statistical analysis was performed using Graph Pad Prism 3.0 software, (San Diego, Calif.). Data from microdialysis experiments were expressed as a percentage of the respective mean basal value to compensate for inter-subject differences. […] LogEC50's were compared after fitting curves with a Student's t-test. Pharmacological treatments correspond to independent groups of animals. Significant differences were set at p<0.05.

Sprague-Dawley rats = experiment: Local perfusion (reverse dialysis) of D-amphetamine in the nucleus accumbens, rats; settings: read-out: EC50 of DA release (extracellular DA levels)
Protocol: Extracellular DA levels are expressed in percent of basal DA values (3.50±0.021 and 4.71±0.015 pg DA per 20 minutes for mice and rats, respectively).
Rats were anesthetised with sodium pentobarbital (60 mg/kg; Sanofi Santé Animale, France). A unilateral permanent cannula (CMA/11 guide cannula, Microdialysis AB, Sweden) was implanted into the nucleus accumbens. The coordinates for the guide cannula tip were antero-posterior (AP): +1.7 relative to bregma, medio-lateral (ML): +1.1, and dorso-ventral (DV): −5.7 mm from dura (Paxinos and Watson, Ann. Rev. Pharmacol. Toxicol. 32:63(−77, 1986). After surgery, animals were placed in individual plastic cages and allowed to recover for at least 4 days.
The day of the experiment, the microdialysis probe was inserted (CMA/7, Membrane length 2 mm and diameter 0.24 mm, cut-off: 6000 Da, Microdialysis AB, Sweden, for mice or CMA/11 with identical probe characteristics for rats). […]
as §1

C57BL6/J mice = experiment: Local perfusion (reverse dialysis) of D-amphetamine in the nucleus accumbens, mice
Protocol: Dialysate samples were completed to 30 μl with the mobile phase and placed into a refrigerated automatic injector (Triathlon, Spark Holland, Emmen, The Netherlands). Twenty five μl of the sample were injected every 15 minutes through a rheodyne valve in the mobile phase circuit. High-performance liquid chromatography was performed with a reverse-phase column (80×4.6 mm, 3 μM particle size, HR-80, ESA INC., Chelmsford, Mass.). Mobile phase (NaH2PO4 75 mM, EDTA 20 μM, octane sulfonic acid 2.75 mM, triethylamine 0.7 mM, acetonitrile 6%, methanol 6%, and pH 5.2) was delivered at 0.7 ml/min by an ESA-580 pump. […]

WT and α1b-AR KO mice [4] = experiment: Locomotor sensitization induced by repeated drug administration
Protocol: Animals spent 90 minutes in the experimental apparatus, received a saline injection and were replaced in the apparatus for 60 minutes. […] Four similar sessions took place every other day. The sixth session took place after a 10-day withdrawal. Locomotor responses measured during the first hour following each injection are presented in function of the number of injections and slope values. N=6 to 15 animals per group.
N=6 to 12 animals per group. […] FIG. 6B represents the time course of the locomotor responses measured every 5 minutes.
as §2
Data were analyzed with Student's t-test or analysis of variance. For behavioral sensitization experiments, correlation between the number of drug injections and the amplitude of the locomotor responses was analyzed with linear regression and the influence of genotype on this correlation with an analysis of covariance. Genotype and prazosin treatments were between-subjects factors. […] Differences were considered significant when p<0.05.
The rate of sensitization was evaluated by determining the slope of the “number of injections/response” curve (FIG. 5).

[5] = α1bAR-KO mice, D-amphetamine 3 mg/kg

Compound: C[C@H](N)Cc1ccccc1.C[C@H](N)Cc1ccccc1.O=S(=O)(O)O [D-amphetamine, D-amphetamine sulfate]
- extracellular DA levels in the nucleus accumbens (WT and α1bAR-KO mice [1]; WT mice, D-amphetamine 3 mg/kg i.p.): enhanced extracellular DA levels
- extracellular DA levels in the nucleus accumbens (WT and α1bAR-KO mice [1]; WT mice, D-amphetamine 6 mg/kg i.p.): enhanced extracellular DA levels
- extracellular DA levels in the nucleus accumbens (WT and α1bAR-KO mice [1]; [5]): did not modify basal extracellular DA levels
- mean increase in extracellular DA levels in the nucleus accumbens (WT and α1bAR-KO mice [1]; α1bAR-KO mice, D-amphetamine 6 mg/kg, vs basal): +25%
- amplitude of locomotor response, α1b-AR KO vs WT mice (WT and α1b-AR KO mice [2]; D-amphetamine 2 and 3 mg/kg, cocaine and morphine independent of dose): significantly lower
- locomotor activity (WT and α1b-AR KO mice [2]; WT mice): dose-dependent stimulation of locomotor activity
- locomotor activity (WT and α1b-AR KO mice [2]; α1b-AR KO mice): also increased locomotor activity
- locomotor hyperactivity (WT and α1bAR-KO mice [3]; WT mice, D-amphetamine 3 mg/kg): 1352±389
- locomotor hyperactivity (WT and α1bAR-KO mice [3]; WT mice, D-amphetamine 6 mg/kg): 2758±199
- locomotor hyperactivity (WT and α1bAR-KO mice [3]; [5]): 219±62
- locomotor hyperactivity (WT and α1bAR-KO mice [3]; α1bAR-KO mice, D-amphetamine 6 mg/kg): 734±184
- EC50 (Sprague-Dawley rats): 11.8 ± 1.3 µM
- DA release in WT mice lower than previously found in rats (C57BL6/J mice; 3 μM D-amphetamine, local perfusion in nucleus accumbens, WT mice vs rats (Darracq et al.)): more than 5 fold
- EC50 (C57BL6/J mice; C57BL6/J mice, local perfusion in nucleus accumbens, read-out: EC50 of DA release (extracellular DA levels)): 15.6 ± 1.1 µM
- locomotor hyperactivity on local perfusion (C57BL6/J mice; mice nucleus accumbens, up to 100 μM): did not induce any locomotor hyperactivity
- rate of sensitization: slope of the number of injections/response curve (WT and α1b-AR KO mice [4]; WT mice, D-amphetamine 1 mg/kg): 179.8±69.1
- rate of sensitization: slope of the number of injections/response curve (WT and α1b-AR KO mice [4]; WT mice, D-amphetamine 2 mg/kg): 265+71
- rate of sensitization: slope of the number of injections/response curve (WT and α1b-AR KO mice [4]; α1b-AR KO mice, D-amphetamine 1 mg/kg): 33.4±17.7
- rate of sensitization: slope of the number of injections/response curve (WT and α1b-AR KO mice [4]; α1b-AR KO mice, D-amphetamine 2 mg/kg): 104.4±31
